Data: paper PMC8844075 (Nature Communications, 2022)
Where two headings read alike, the source gives them in different places.

Experiments:
[1] = system: Y1R; conditions: cited from earlier work
[2] = system: Gi1 heterotrimer with NPY-bound Y1R; test: GTP turnover assay; type: biochemical, human
Method: GTP turnover assay was performed using GTPase-Glo assay kit (Promega)[22]. […] NPY-bound Y1R (4 μM) was mixed with 1 μM Gi1 heterotrimer (containing Gαi produced from E. coli or Sf9 cells) in an assay buffer consisting of 20 mM HEPES pH 8.0, 150 mM NaCl, 0.03% DDM, 0.003% CHS, 100 μM TCEP, 5 μM GDP, and 2.5 μM GTP. After incubation for 3 h, reconstituted GTPase-Glo reagent was added to the sample and incubated for 30 min at room temperature. Then, detection reagent was mixed and incubated for 10 min at room temperature. Luminescence was measured using a FlexStation 3 multi-mode microplate reader (Molecular Devices) and data were analyzed by GraphPad Prism 9.2.0.

[3] = system: wild-type Y1R / Gi1; test: BRET Gi1 recruitment assay, wild-type Y1R; type: cell-based, human; conditions: result in words
Method: Forty-eight hours of post-transfection, cells were detached with PBS supplemented with 20 mM EDTA and evenly spread into white 96-well microplates (SPL). […] All BRET data were collected using a Mithras LB940 instrument (Berthold), and graphs were plotted using GraphPad Prism 9.2.0.
each sample represent the mean and S.E.M. (standard error of mean) of n=six independent experiments, respectively. Each circle represents an individual data point from the experiment.

[4] = alanine mutants of NPY, ref [10],[26]

R35A: R35A mutation of NPY
Y1R binding [1, 4]: most severe defects in Y1R binding

R33A: R33A mutation of NPY
Y1R binding [1, 4]: most severe defects in Y1R binding

Y36F: Y36F mutation of NPY
Y1R binding ([1]; NPY mutant, ref [26]): relatively mild effect on Y1R binding

Y36A: Y36A mutation of NPY
Y1R binding [1, 4]: loss of binding to Y1R

Y1R
GTP turnover ([2]; 1st, Buffer 7216.3): 7542.9
GTP turnover ([2]; 2nd, Buffer 7401.3): 7352.2
GTP turnover ([2]; 3rd, Buffer 7365.4): 7960.2

Gi1 (Sf9): purified Gi1 heterotrimer containing Gαi1 produced from Sf9 insect cells
reduced luminescence signal (GTP hydrolytic activity) ([2]; GTPase-Glo, 1 μM Gi1, 4 μM NPY-bound Y1R, 3 h, three independent experiments): 95.1%

NPY-COOH: carboxyl-NPY (NPY-COOH), non-amidated NPY
Gi1 recruitment [3]: does not induce recruitment of Gi1

Gi (sf9)
GTP turnover ([2]; 1st, Buffer 7216.3): 2592.3
GTP turnover ([2]; 2nd, Buffer 7401.3): 2856.7
GTP turnover ([2]; 3rd, Buffer 7365.4): 2743.4
